The assay deals with Beta-secretase 1 (Homo sapiens, UniProt P56817). The assay can be described thus: D3R2027.
Sequence of Beta-secretase 1 (P56817 whole entry): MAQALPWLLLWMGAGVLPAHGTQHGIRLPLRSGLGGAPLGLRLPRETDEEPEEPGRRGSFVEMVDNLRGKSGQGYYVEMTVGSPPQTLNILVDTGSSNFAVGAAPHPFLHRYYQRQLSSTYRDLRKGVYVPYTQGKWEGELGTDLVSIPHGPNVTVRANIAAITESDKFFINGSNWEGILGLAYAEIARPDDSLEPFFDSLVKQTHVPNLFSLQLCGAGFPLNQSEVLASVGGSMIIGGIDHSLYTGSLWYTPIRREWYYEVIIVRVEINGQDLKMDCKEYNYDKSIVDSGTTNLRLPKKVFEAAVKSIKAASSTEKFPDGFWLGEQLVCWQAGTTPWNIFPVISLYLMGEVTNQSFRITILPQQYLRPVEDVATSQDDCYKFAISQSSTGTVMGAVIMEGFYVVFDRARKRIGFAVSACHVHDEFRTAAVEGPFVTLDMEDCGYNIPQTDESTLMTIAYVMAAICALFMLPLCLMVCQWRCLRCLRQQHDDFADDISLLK
From the text: D3R2027
The compound `CC(C)c1cccc(CNC[C@@H](O)[C@@H]2C[C@H](C)CC/C=C/CCCNc3cc(CO)cc(c3)C(=O)N2)c1` [BACE_66] displayed an IC50 of 350 nM.

The compound `C[C@@H]1CC/C=C/CCCNc2cc(CO)cc(c2)C(=O)N[C@H]([C@H](O)CNCc2cc(CC(C)(C)C)on2)C1` [BACE_67] yielded an IC50 of 210 nM.

Compound `C[C@@H]1CCCCCCCNc2cc(cc(C(=O)N(C)C)c2)C(=O)N[C@H]([C@H](O)CNC2(c3cccc(C(C)(C)C)c3)CC2)C1` [BACE_68] came in with an IC50 of 1.5 nM.

The compound `CC(C)c1cccc(CNC[C@@H](O)[C@@H]2C[C@H](C)CCCCCCCN(S(C)(=O)=O)c3cc(cc(N(C)S(C)(=O)=O)c3)C(=O)N2)c1` [BACE_69] displayed an IC50 of 1900 nM.

For the compound `CC(C)c1cccc(C(C)(C)NC[C@@H](O)[C@@H]2C[C@H](C)CCCCCCCNc3cccc(n3)C(=O)N2)c1` [BACE_70], the IC50 worked out at 2900 nM.

Consider `CC(C)c1cccc(CNC[C@@H](O)[C@@H]2C[C@@H]3CC[C@H](CCCCCNc4cc(cc(C(F)(F)F)c4)C(=O)N2)C3)c1` [BACE_71], for which the IC50 was 340 nM.

In turn, `CCOc1ccc(C(F)(F)F)c(CNC[C@@H](O)[C@@H]2C[C@H](C)CCOCCCCNc3cccc(c3)C(=O)N2)c1` [BACE_72] gave an IC50 of 8900 nM.

Compound `CCOc1cc(CNC[C@@H](O)[C@@H]2C[C@H](C)CCOCCCCNc3cccc(c3)C(=O)N2)cc(C(F)(F)F)c1` [BACE_73] yielded an IC50 of 6300 nM.

For `C[C@@H]1CCOCCCCNc2cc(ccc2Cl)C(=O)N[C@H]([C@H](O)CNCc2cc(C(C)(C)C)ccn2)C1` [BACE_74], half-maximal inhibition (IC50) required 150 nM.

`COCc1cc2cc(c1)C(=O)N[C@H]([C@H](O)CNC1(c3cccc(C(C)(C)C)c3)CC1)C[C@H](C)CCOC/C=C\CN2` [BACE_75] returned an IC50 of 60 nM.

Turning to `COCc1cc2cc(c1)C(=O)N[C@H]([C@H](O)CNCc1cc(C(F)(F)F)ccc1F)C[C@H](C)CCOCCCCN2` [BACE_76], half-maximal inhibition (IC50) was put at 5600 nM.

With `COCc1cc2cc(c1)C(=O)N[C@H]([C@H](O)CNC1(c3cccc(C(C)C)c3)CC1)C/C(C)=C/COCCCCN2` [BACE_77], half-maximal inhibition (IC50) required 79 nM.

On to `C[C@@H]1CCCCCCCOc2cccc(c2)C(=O)N[C@H]([C@H](O)CNCc2cncc(CC(C)(C)C)c2)C1` [BACE_78], for which the midpoint of inhibition, the IC50, lay at 880 nM.

`C[C@@H]1CCCCCCCOc2cccc(c2)C(=O)N[C@H]([C@H](O)CN[C@@H](C)c2cc(CC(C)(C)C)on2)C1` [BACE_79] returned an IC50 of 300 nM.

`CC(C)c1cccc(CNC[C@@H](O)[C@@H]2C[C@H](C)CCCCCCCOc3cc(cc(-c4ncco4)c3)C(=O)N2)c1` [BACE_80]: half-maximal inhibition (IC50) required 68 nM.

`C[C@@H]1CCCCCCCOc2cc(cc(-c3ncco3)c2)C(=O)N[C@H]([C@H](O)CNC2(c3cc(C(C)(C)C)ccn3)CC2)C1` [BACE_81] showed an IC50 of 8.5 nM.

`CC(C)c1cccc(CNC[C@@H](O)[C@@H]2C[C@H](C)CCCCCCCOc3cc(cc(N(C)S(C)(=O)=O)c3)C(=O)N2)c1` [BACE_82] registered a half-maximal inhibitory concentration (IC50) of 11 nM.

The compound `C[C@@H]1CCCCCCCOc2cc(cc(C(=O)N(C)C)c2)C(=O)N[C@H]([C@H](O)CNC2(c3cc(C(C)(C)C)ccn3)CC2)C1` [BACE_83] yielded an IC50 of 6 nM.

With `C[C@@H]1CCCCCCCOc2cc(ccn2)C(=O)N[C@H]([C@H](O)CNC(C)(C)c2cc(CC(C)(C)C)on2)C1` [BACE_84], the IC50 was found to be 31 nM.

As for `CC(C)c1cccc(CNC[C@@H](O)[C@@H]2C[C@H](C)CCCCCCCCC(=O)N3CCCC[C@H]3C(=O)N2)c1` [BACE_85], half-maximal inhibition (IC50) required 1500 nM.

Regarding `CC(C)c1cccc(CNC[C@@H](O)[C@@H]2C[C@H](C)CCCCCCCC[C@@]3(O)CCC[C@H](C3)C(=O)N2)c1` [BACE_86], the IC50 came out at 1700 nM.

In turn, `C[C@H]1C(=O)N[C@H]([C@H](O)CNCc2cncc(C3CC3)c2)Cc2cccc(c2)CCCCCCC(=O)N1C` [BACE_87] came in with a 50% inhibitory concentration (IC50) of 1100 nM.

With `CC(C)c1cccc(CNC[C@@H](O)[C@@H]2Cc3ccc(O)c(c3)Cc3ccccc3OCC(=O)N[C@@H](C)C(=O)N2)c1` [BACE_88], the IC50 was 4300 nM.

For `CC(C)c1cccc(CNC[C@@H](O)[C@@H]2Cc3cccc(c3)OCCCCO[C@H]3CCN(CC(=O)N2)C3=O)c1` [BACE_89], half-maximal inhibition (IC50) was put at 260 nM.

As for `C[C@H]1C(=O)N[C@H]([C@H](O)CNC2(c3cccc(Br)c3)CC2)Cc2cccc(c2)OCCCCCC(=O)N1C` [BACE_90], the IC50 was 170 nM.

In the case of `CC(C)c1ccc2c(c1)[C@@H](NC[C@@H](O)[C@@H]1Cc3cccc(c3)OCCCCCC(=O)N(C)[C@@H](C)C(=O)N1)CC(C)(C)O2` [BACE_91], half-maximal inhibition (IC50) required 2 nM.

`C[C@@H]1CC(=O)NCCCCOc2cccc(c2)C[C@@H]([C@H](O)CNCc2cccc(C(C)(C)C)c2)NC1=O` [BACE_92] registered an IC50 of 69 nM.

`C[C@@H]1CC(=O)NCCCCOc2cccc(c2)C[C@@H]([C@H](O)CNC2(c3cccc(C(C)(C)C)c3)CCCCC2)NC1=O` [BACE_93] yielded an IC50 of 10 nM.

`CC(C)c1cccc(CNC[C@@H](O)[C@@H]2Cc3cccc(c3)OCCCCS(=O)(=O)C[C@@H](C)C(=O)N2)c1` [BACE_94] registered an IC50 of 29 nM.

Consider `C[C@@H]1CS(=O)(=O)CCCCOc2cccc(c2)C[C@@H]([C@H](O)CNC2(c3cccc(Br)c3)CC2)NC1=O` [BACE_95], for which half-maximal inhibition (IC50) was put at 68 nM.

The compound `CC(C)(C)Cc1cc(C(C)(C)NC[C@@H](O)[C@@H]2Cc3cccc(c3)OCCCCOc3cc(Cl)cc(c3)C(=O)N2)no1` [BACE_96] displayed an IC50 of 8 nM.

The compound `Cc1cc2cc(n1)NCCCCc1cccc(c1)C[C@@H]([C@H](O)CNCc1cc(C(C)(C)C)ccn1)NC2=O` [BACE_97] registered an IC50 of 3 nM.

`CC(C)c1ccnc(C2(NC[C@@H](O)[C@@H]3Cc4cccc(c4)CCCCNc4cc(cc(Cl)n4)C(=O)N3)CC2)c1` [BACE_98] had an IC50 of 0.5 nM.

The compound `COc1cc2cc(n1)N(C)CCCCc1cccc(c1)C[C@@H]([C@H](O)CNCc1cccc(C(C)C)c1)NC2=O` [BACE_99] had an IC50 of 89 nM.

For the compound `COc1ccc2cc1OCCCCNc1cc(cc(Cl)n1)C(=O)N[C@H]([C@H](O)CNCc1cccc(C(C)C)c1)C2` [BACE_100], half-maximal inhibition (IC50) required 39 nM.

`CC(=O)N1CCCCOc2cccc(c2)C[C@@H]([C@H](O)CNCc2cc(C(C)C)ccn2)NC(=O)c2cc(C)nc1c2` [BACE_101] yielded an IC50 of 5500 nM.

Turning to `Cc1cc2cc(n1)NC/C=C\COc1cc(ccc1F)C[C@@H]([C@H](O)CNC1(c3cccc(C(C)(C)C)c3)CC1)NC2=O` [BACE_102], half-maximal inhibition (IC50) required 100 nM.

Turning to `CC(C)(C)c1ccnc(CNC[C@@H](O)[C@@H]2Cc3cccc(c3)OC/C=C\CNc3cc(cc(Cl)n3)C(=O)N2)c1` [BACE_103], the IC50 worked out at 89 nM.

As for `NC[C@@H](O)[C@@H]1Cc2cccc(c2)OC/C=C\CNc2cc(cc(Cl)n2)C(=O)N1` [BACE_104], half-maximal inhibition (IC50) was put at 40000 nM.

As to `Cc1cc2cc(c1)OCCCCNc1cc(cc(Cl)n1)C(=O)N[C@H]([C@H](O)CNCc1cccc(C(C)C)c1)C2` [BACE_105], the IC50 is 68 nM.

In turn, `Cc1cc2cc(n1)OCCCCc1cccc(c1)C[C@@H]([C@H](O)CNC(C)(C)c1cccc(C(C)C)c1)NC2=O` [BACE_106] displayed a 50% inhibitory concentration (IC50) of 150 nM.

Compound `Cc1cc2cc(n1)OCCCCc1cc(cc(Cl)c1O)C[C@@H]([C@H](O)CNC(C)(C)c1cccc(C(C)C)c1)NC2=O` [BACE_107] yielded an IC50 of 47 nM.

Turning to `Cc1cc2cc(n1)OCCCCc1cc(cc(Cl)c1O)C[C@@H]([C@H](O)CNC(C)(C)c1cc(CC(C)(C)C)on1)NC2=O` [BACE_108], the IC50 came out at 16 nM.

The values above are taken from BindingDB's records for doi:10.7270/Q2N301S8 (D3R/Abbott, 2020).
